Literature values in PubChem BioAssay AID1259409 (Chemical Carcinogenesis Research Information System (CCRIS), 2018).
Values joined by “and” are separate entries in the source; they are usually repeats but may differ in a detail not shown here. Equal entries are not always repeated.

Test system: rodent chemically induced tumor inhibition, incidence and multiplicity
Assay: CCRIS tumor inhibitor studies
Details: Route [Inhibitor]: ORAL

CCS(=O)(=O)c1ccc(/C=C(\C)c2ccc3c(c2)C(C)(C)CCC3(C)C)cc1
tumour outcome (control, treated, inhibition, significance) (Carcinogen: 7,12-DIMETHYLBENZ[A]ANTHRACENE, 57-97-6, Dose [Inhibitor]: 0, 3 MG/KG/D IN FEED REDUCED AFTER 4 WK TO 2.2 MG/KG/D (STUDY DURATION: 13 WK), Species: RAT, Strain/Sex: SPRAGUE-DAWLEY/FEMALE, Target Tissue: Type of Lesion: MAMMARY GLAND: TUMOR, Dose [Carcinogen]: 15 MG IN ARACHIS OIL ONCE AT 50 D OF AGE, Promoter: NONE USED): 96%, 73%, 24%, not calculated

O=C(O)[C@H](O)[C@@H](O)[C@H](O)[C@H](O)CO
tumour outcome (control, treated, inhibition, significance) (Carcinogen: 1,2-DIMETHYLHYDRAZINE DIHYDROCHLORIDE, 306-37-6, Dose [Inhibitor]: 0, 1% IN DIET FOR 8 MO BEGINNING 2 WK POST CARCINOGEN (STUDY DURATION: 8 MO, 2 WK), Species: RAT, Strain/Sex: F344/MALE, Target Tissue: Type of Lesion: COLON: TUMOR, Dose [Carcinogen]: 200 MG/KG IN 0.9% NACL ONCE): 15/27 (56%), 17/28 (61%), -9%, not significant
tumour outcome (control, treated, inhibition, significance) (Carcinogen: 1,2-DIMETHYLHYDRAZINE DIHYDROCHLORIDE, 306-37-6, Dose [Inhibitor]: 0, 2% IN DIET FOR 8 MO BEGINNING 2 WK POST CARCINOGEN (STUDY DURATION: 8 MO, 2 WK), Species: RAT, Strain/Sex: F344/MALE, Target Tissue: Type of Lesion: COLON: TUMOR, Dose [Carcinogen]: 200 MG/KG IN 0.9% NACL ONCE): 15/27 (56%), 7/17 (41%), 27%, not significant

[Se]
tumour outcome (control, treated, inhibition, significance) (Carcinogen: 1,2-DIMETHYLHYDRAZINE, 540-73-8, Dose [Inhibitor]: 0, 0.2, 5 PPM IN DIET BEGINNING 1 D PRIOR TO CARCINOGEN TREATMENT AND CONTINUING FOR DURATION OF STUDY (STUDY DURATION:, Dose [Inhibitor]: 0, 0.2, 5 PPM IN DIET BEGINNING 1 D PRIOR TO CARCINOGEN TREATMENT AND CONTINUING FOR DURATION OF STUDY (STUDY DURATION:, Species: RAT, Strain/Sex: SPRAGUE-DAWLEY/MALE, Target Tissue: Type of Lesion: DISTAL COLON: ADENOCARCINOMA, Dose [Carcinogen]: 20 MG/KG 1/WK FOR 20 WK, Promoter: NONE USED): 94%, 81%, 14%, not significant
tumour outcome (control, treated, inhibition, significance) (Carcinogen: 3,2'-DIMETHYL-4-AMINOBIPHENYL, 13394-86-0, Dose [Inhibitor]: 0, 2 PPM IN BASAL DIET BEGINNING POST CARCINOGEN TREATMENT AND CONTINUING FOR 40 WK (STUDY DURATION: 60 WK), Species: RAT, Strain/Sex: F344/MALE, Target Tissue: Type of Lesion: LARGE INTESTINE: ADENOMA AND CARCINOMA, Dose [Carcinogen]: 50 MG/KG 1/2 WK FOR 20 WK TO RATS MAINTAINED ON ETHINYL ESTRADIOL CONTAINING DIET (0.75 PPM) FOR 1 WK CYCLED WITH ETHINY, Promoter: ETHINYL ESTRADIOL, 57-63-6): 3/10 (30%), 0/11 (0%), 100%, not significant
tumour outcome (control, treated, inhibition, significance) (Carcinogen: 3,2'-DIMETHYL-4-AMINOBIPHENYL, 13394-86-0, Dose [Inhibitor]: 0, 2 PPM IN BASAL DIET BEGINNING POST CARCINOGEN TREATMENT AND CONTINUING FOR 40 WK (STUDY DURATION: 60 WK), Species: RAT, Strain/Sex: F344/MALE, Target Tissue: Type of Lesion: PANCREAS: ACINAR CELL NODULE, Dose [Carcinogen]: 50 MG/KG 1/2 WK FOR 20 WK TO RATS MAINTAINED ON ETHINYL ESTRADIOL CONTAINING DIET (0.75 PPM) FOR 1 WK CYCLED WITH ETHINY, Promoter: ETHINYL ESTRADIOL, 57-63-6): 4/10 (40%), 4/11 (36%), 10%, not significant
tumour outcome (control, treated, inhibition, significance) (Carcinogen: 3,2'-DIMETHYL-4-AMINOBIPHENYL, 13394-86-0, Dose [Inhibitor]: 0, 2 PPM IN BASAL DIET BEGINNING POST CARCINOGEN TREATMENT AND CONTINUING FOR 40 WK (STUDY DURATION: 60 WK), Species: RAT, Strain/Sex: F344/MALE, Target Tissue: Type of Lesion: PREPUTIAL GLAND: ADENOMA AND CARCINOMA, Dose [Carcinogen]: 50 MG/KG 1/2 WK FOR 20 WK TO RATS MAINTAINED ON ETHINYL ESTRADIOL CONTAINING DIET (0.75 PPM) FOR 1 WK CYCLED WITH ETHINY, Promoter: ETHINYL ESTRADIOL, 57-63-6): 5/10 (50%), 6/11 (55%), -10%, not significant
tumour outcome (control, treated, inhibition, significance) (Carcinogen: 3,2'-DIMETHYL-4-AMINOBIPHENYL, 13394-86-0, Dose [Inhibitor]: 0, 2 PPM IN BASAL DIET BEGINNING POST CARCINOGEN TREATMENT AND CONTINUING FOR 40 WK (STUDY DURATION: 60 WK), Species: RAT, Strain/Sex: F344/MALE, Target Tissue: Type of Lesion: SMALL INTESTINE: ADENOMA AND ADENOCARCINOMA, Dose [Carcinogen]: 50 MG/KG 1/2 WK FOR 20 WK TO RATS MAINTAINED ON ETHINYL ESTRADIOL CONTAINING DIET (0.75 PPM) FOR 1 WK CYCLED WITH ETHINY, Promoter: ETHINYL ESTRADIOL, 57-63-6): 2/10 (20%), 2/11 (18%), 10%, not significant
tumour outcome (control, treated, inhibition, significance) (Carcinogen: 3,2'-DIMETHYL-4-AMINOBIPHENYL, 13394-86-0, Dose [Inhibitor]: 0, 2 PPM IN BASAL DIET BEGINNING POST CARCINOGEN TREATMENT AND CONTINUING FOR 40 WK (STUDY DURATION: 60 WK), Species: RAT, Strain/Sex: F344/MALE, Target Tissue: Type of Lesion: SUBCUTIS: TUMOR, Dose [Carcinogen]: 50 MG/KG 1/2 WK FOR 20 WK TO RATS MAINTAINED ON ETHINYL ESTRADIOL CONTAINING DIET (0.75 PPM) FOR 1 WK CYCLED WITH ETHINY, Promoter: ETHINYL ESTRADIOL, 57-63-6): 1/10 (10%), 0/11 (0%), 100%, not significant
tumour outcome (control, treated, inhibition, significance) (Carcinogen: 3,2'-DIMETHYL-4-AMINOBIPHENYL, 13394-86-0, Dose [Inhibitor]: 0, 2 PPM IN BASAL DIET BEGINNING POST CARCINOGEN TREATMENT AND CONTINUING FOR 40 WK (STUDY DURATION: 60 WK), Species: RAT, Strain/Sex: F344/MALE, Target Tissue: Type of Lesion: ZYMBAL GLAND: ADENOMA AND CARCINOMA, Dose [Carcinogen]: 50 MG/KG 1/2 WK FOR 20 WK TO RATS MAINTAINED ON ETHINYL ESTRADIOL CONTAINING DIET (0.75 PPM) FOR 1 WK CYCLED WITH ETHINY, Promoter: ETHINYL ESTRADIOL, 57-63-6): 2/10 (20%), 2/11 (18%), 10%, not significant
tumour outcome (control, treated, inhibition, significance) (Carcinogen: 3,2-DIMETHYL-4-AMINOBIPHENYL, 13394-86-0, Dose [Inhibitor]: 0, 2 PPM IN BASAL DIET BEGINNING POST CARCINOGEN TREATMENT AND CONTINUING FOR 40 WK (STUDY DURATION: 60 WK), Species: RAT, Strain/Sex: F344/MALE, Target Tissue: Type of Lesion: PROSTATE: CARCINOMA, Dose [Carcinogen]: 50 MG/KG 1/2 WK FOR 20 WK TO RATS MAINTAINED ON ETHINYL ESTRADIOL CONTAINING DIET (0.75 PPM) FOR 1 WK CYCLED WITH ETHINY, Promoter: ETHINYL ESTRADIOL, 57-63-6): 5/10 (50%), 4/11 (36%), 28%, not significant
tumour outcome (control, treated, inhibition, significance) (Carcinogen: DINITROSOPIPERAZINE, 140-79-4, Dose [Inhibitor]: 0, 2 UG/G DIET IN YEAST CONCURRENTLY WITH CARCINOGEN AND CONTINUED FOR STUDY DURATION (STUDY DURATION: 13.5 MO), Species: RAT, Strain/Sex: CD-1/MALE, FEMALE, Target Tissue: Type of Lesion: NASAL PHARYNX: CARCINOMA, Dose [Carcinogen]: 1.5 MG IN WATER 2/WK FOR 5 WK FOLLOWED BY 3 MG IN WATER 2/WK FOR 17.5 WK (TOTAL DOSE: 120 MG)): 5/31(16%), 1/22(5%), 69%, p 0.025
tumour outcome (control, treated, inhibition, significance) (Carcinogen: NONE USED, Dose [Inhibitor]: 0.5 PPM IN DRINKING WATER DAILY FOR DURATION OF STUDY (STUDY DURATION: 2 YR), Species: MOUSE, Strain/Sex: C3H/FEMALE, Target Tissue: Type of Lesion: MAMMARY GLAND: ADENOCARCINOMA, Promoter: NONE USED): 64%, 25%, 61%, p<0.01
tumour outcome (control, treated, inhibition, significance) (Carcinogen: NONE USED, Dose [Inhibitor]: 2 PPM IN A 10% BUTTER DIET DAILY FOR DURATION OF STUDY (STUDY DURATION: 2 YR), Species: MOUSE, Strain/Sex: C3H/FEMALE, Target Tissue: Type of Lesion: MAMMARY GLAND: ADENOCARCINOMA, Promoter: NONE USED): 65%, 72%, -11%, not significant
tumour outcome (control, treated, inhibition, significance) (Carcinogen: NONE USED, Dose [Inhibitor]: 2 PPM IN A 10% CORN OIL DIET DAILY FOR DURATION OF STUDY (STUDY DURATION: 2 Y R), Species: MOUSE, Strain/Sex: C3H/FEMALE, Target Tissue: Type of Lesion: MAMMARY GLAND: ADENOCARCINOMA, Promoter: NONE USED): 70%, 72%, -3%, not significant
tumour outcome (control, treated, inhibition, significance) (Carcinogen: NONE USED, Dose [Inhibitor]: 2 PPM IN A 10% LARD DIET DAILY FOR DURATION OF STUDY (STUDY DURATION: 2 YR), Species: MOUSE, Strain/Sex: C3H/FEMALE, Target Tissue: Type of Lesion: MAMMARY GLAND: ADENOCARCINOMA, Promoter: NONE USED): 53%, 52%, 2%, not significant
tumour outcome (control, treated, inhibition, significance) (Carcinogen: NONE USED, Dose [Inhibitor]: 2 PPM IN A 10% RAPE SEED OIL DIET DAILY FOR DURATION OF STUDY (STUDY DURATION : 2 YR), Species: MOUSE, Strain/Sex: C3H/FEMALE, Target Tissue: Type of Lesion: MAMMARY GLAND: ADENOCARCINOMA, Promoter: NONE USED): 63%, 65%, -3%, not significant
tumour outcome (control, treated, inhibition, significance) (Carcinogen: NONE USED, Dose [Inhibitor]: 2 PPM IN DRINKING WATER DAILY FOR DURATION OF STUDY (STUDY DURATION: 2 YR), Species: MOUSE, Strain/Sex: C3H/FEMALE, Target Tissue: Type of Lesion: MAMMARY GLAND: ADENOCARCINOMA, Promoter: NONE USED): 44%, 40%, 9%, not calculated and 64%, 25%, 61%, p<0.01
